Data from US12084610B2, “Compositions and methods for reducing deleterious atmospheric gas emissions from flooded ecosystems” (Arkea Bio Corp., priority 2022, dated 2024).

Key:
[1] = 3-NOP pH and temperature stability (HPLC); assay type: physicochemical; settings: 1-month time period, temperature 4-30 C, pH 4-10
From the text: 3-NOP pH and Temperature Stability: Confirmed via HPLC over a 1-month time period at temperature between 4-30 C and pH 4-10.

[2] = 3-NOP volatility (mass loss open to air); assay type: physicochemical; settings: 500 mg in 5 dram vial open to air, ~18-24 C, 15-30% RH, 6 days
Method: 3-NOP Volatility: 500 mg of 3-NOP in a 5 dram vial was left open to air at ˜18-24 C at 15-30% RH over the course of 6 days. Average mass loss is ˜0.25% per day.

For `O=[N+]([O-])OCCCO` [Formula 3-NOP, 3-nitrooxypropanol], the “3-NOP pH and Temperature Stability” value [1] was “Confirmed” and the “Average mass loss (volatility)” value [2] was about 0.25 % per day.
